Columns and labels:
serum lipid = settings: Science, 193, 903 (1976); J. Lipid Res., 12, 596 (1971); cited from earlier work
[1] = in words; cited from earlier work
[2] = tested on: emulsion-induced hyperlipidemic rats; assay: Test 1: antihyperlipidemic activity in emulsion-induced hyperlipidemic rats (serum Chol, HDL-Chol, liver weight); type: in vivo, male S.D. rats; settings: 3 days, vs control; for change in vivo at 300 mg/kg / inhibition in vivo at 300 mg/kg: Rattus norvegicus, po, 72 h; for change in vivo at 300 mg/kg: read-out: Increase rate of serum HDL-Chol; for inhibition in vivo at 300 mg/kg: read-out: Reduction rate of serum Chol.; for Degree of hepatomegaly (change rate of the liver weight): liver weight per 100 g body weight, 300 mg/kg/day
Method: The antihyperlipidemic activity in emulsion-induced hyperlipidemic rats:
Male S.D. rats weighing 80-90 g (4 weeks old) were used. They were divided into groups of 5 to 6 rats each. The test compounds suspended in 0.5% CMC-Na(carboxymethyl cellulose sodium salt) were given to the rats in a daily dose of 4 ml/kg (i.e. 300 mg/kg of the test compounds) via stomach tube every 10:00 a.m. After 30 min., lipids emulsion having the following composition was orally given to the rats in an amount of 2.5 ml per rat.
Cholic acid sodium salt 10.0 g
During the experimental period of 3 days, the rats were fed on a standard commercial diet and water ad libitum. […] The total cholesterol and HDL cholesterol were measured.
The weight of the liver was measured. To the control group, only the aqueous CMC-Na solution and the lipids emulsion were given.
The fractionation of lipoproteins was conducted by a dextran sulfate-MgCl2 precipitation method.
Cholesterol in serum was measured by means of a cholesterol measuring kit (Cholesterol C-Test Wako, manufactured by Wako Junyaku Co., Ltd.), and cholesterol in HDL was measured by means of NC Hi-Set, manufactured by Nippon Chemiphar Co., Ltd.
Further, the reduction rate of Chol was calculated by the following equation. [formula] where A is the amount of serum Chol (mg/dl) of the control group, and B is the amount of serum Chol (mg/dl) of the group to which the therapeutic agent was administered.
Likewise, the increase rate of HDL-Chol was calculated by the following equation. [formula] where C is the amount of serum HDL-Chol (mg/dl) of the control group, and D is the amount of serum HDL-Chol (mg/dl) of the group to which the therapeutic agent was administered.
The degree of hepatomegaly (i.e. the change rate of the liver weight) was calculated by the following equation. [formula] where E is the liver weight (g) per 100 g of the body weight of the control group, and F is the liver weight (g) per 100 g of the body weight of the group to which the therapeutic agent was administered.

animals = settings: animal experiments; Svoboda and Azarnoff, Cancer Res., 39, 3419 (1979); cited from earlier work
[3] = Test 2: Acute toxicity (mortality after seven days); type: in vivo; settings: mouse, in vivo, po, 8000 mg/kg p.o., male ddY mice
Method: (§1) The test compounds suspended in 0.5% CMC-Na were administered p.o. to male ddY mice. The acute toxicity was determined based on the mortality after seven days. In respect of the compounds of Examples 1, 9, 10 and 11 of the present invention, the mortality was 0% even at a dose of as high as 8000 mg/kg by oral administration.

male ddY mice = assay: as above; type: in vivo; settings: 8000 mg/kg p.o., 10080 min
Method: as §1

| SMILES | subsidiary ill effects reported [1] | change in vivo at 300 mg/kg ([2]; 300 mg/kg/day via stomach tube) | inhibition in vivo at 300 mg/kg ([2]; 300 mg/kg/day via stomach tube) | Degree of hepatomegaly (change rate of the liver weight) [2] | mortality at 168 h [3] | further results |
| --- | --- | --- | --- | --- | --- | --- |
| Nc1ncnc2[nH]ncc12 [1H-pyrazolo[3,4-d]pyrimidine-4-amine] |  |  |  |  |  | serum lipid reduction (serum lipid): function to reduce serum lipid |
| CCOC(=O)C(C)(C)Oc1ccc(Cl)cc1 [Clofibrate, reference compound] | myalgia or hepatic insufficiency, and they are likely to lead to gallstone formation | 12% | 44% | +22% |  | hepatic carcinoma (animals): brings about hepatic carcinoma on animal experiments |
| CCCCCCCC/C=C\CCCCCCCCOc1c2ncnc(SCC(=O)OCC)c2nn1C [Example 9, 2-Methyl-3-oleyloxy-7-ethoxycarbonylmethylthio-pyrazolo[4,3-d]pyrimidine] |  | 55% | 66% | +5% | 0% |  |
| CCCCC/C=C\C/C=C\CCCCCCCCOc1c2ncnc(SCC(=O)OCC)c2nn1C [Example 10, 2-Methyl-3-linoleyloxy-7-ethoxycarbonylmethylthio-pyrazolo[4,3-d]pyrimidine] |  | 13% | 76% | +12% | 0% |  |
| CC/C=C\C/C=C\C/C=C\CCCCCCCCOc1c2ncnc(SCC(=O)OCC)c2nn1C [Example 11, 2-Methyl-3-linolenyloxy-7-ethoxycarbonylmethylthio-pyrazolo[4,3-d]pyrimidine] |  |  |  | +20% |  | Increase rate of serum HDL-Chol ([2]; 300 mg/kg/day via stomach tube): 26%; Reduction rate of serum Chol. ([2]; 300 mg/kg/day via stomach tube): 83%; mortality (male ddY mice): 0% |
| O=C(O)c1cccnc1 [nicotinic acid] | flashing or gastroenteric troubles |  |  |  |  |  |

From patent US4654348A, “Pyrazolo[4,3-d]pyrimidine derivative, process for its production, antihyperlipidemic agent containing it, its intermediate, and process for the production of the intermediate” (Nissan Chemical Industries Ltd., priority 1984, dated 1987)
